Values of other authors, collected in article PMC5108082, “Pharmacokinetics, toxicity, and cytochrome P450 modulatory activity of plumbagin” (BMC Pharmacology & Toxicology, 2016).

Tests used:
[1] = test system: K1 chloroquine-resistant P. falciparum; details: K1 clone; read-out: mean IC50; cited from earlier work
[2] = test system: 3D7 chloroquine-sensitive P. falciparum; details: 3D7 clone; read-out: mean IC50; cited from earlier work

Compound	IC50 [1]	IC50 [2]
C=C[C@H]1C[N@@]2CC[C@H]1C[C@H]2[C@H](O)c1ccnc2ccc(OC)cc12 [quinine]	133 nM	52 nM
OC(c1cc(C(F)(F)F)nc2c(C(F)(F)F)cccc12)C1CCCCN1 (centres unmarked) [mefloquine]	12 nM	10 nM
CCN(CC)CCCC(C)Nc1ccnc2cc(Cl)ccc12 (centres unmarked) [chloroquine]	130 nM	8 nM
C[C@H]1[C@H](OC(=O)CCC(=O)O)O[C@@H]2O[C@@]3(C)CC[C@H]4[C@H](C)CC[C@@H]1[C@@]24OO3 [artesunate]	1.5 nM	2 nM
